We go through three molecules from paper PMC4457528, “Identification of Novel Small Molecule Inhibitors of Oncogenic RET Kinase” (PLoS ONE, 2015).

Common to all, as to experiment: KinomeScan kinase panel, single concentration 10 µM
Type in all cases: binding

For assay [1], the target named is T1, KinomeScan kinase panel (Homo sapiens, UniProt Q9UF33).
T1 construct: purchased DiscoveRx (KinomeScan)
T1 sequence (Q9UF33 23-1036): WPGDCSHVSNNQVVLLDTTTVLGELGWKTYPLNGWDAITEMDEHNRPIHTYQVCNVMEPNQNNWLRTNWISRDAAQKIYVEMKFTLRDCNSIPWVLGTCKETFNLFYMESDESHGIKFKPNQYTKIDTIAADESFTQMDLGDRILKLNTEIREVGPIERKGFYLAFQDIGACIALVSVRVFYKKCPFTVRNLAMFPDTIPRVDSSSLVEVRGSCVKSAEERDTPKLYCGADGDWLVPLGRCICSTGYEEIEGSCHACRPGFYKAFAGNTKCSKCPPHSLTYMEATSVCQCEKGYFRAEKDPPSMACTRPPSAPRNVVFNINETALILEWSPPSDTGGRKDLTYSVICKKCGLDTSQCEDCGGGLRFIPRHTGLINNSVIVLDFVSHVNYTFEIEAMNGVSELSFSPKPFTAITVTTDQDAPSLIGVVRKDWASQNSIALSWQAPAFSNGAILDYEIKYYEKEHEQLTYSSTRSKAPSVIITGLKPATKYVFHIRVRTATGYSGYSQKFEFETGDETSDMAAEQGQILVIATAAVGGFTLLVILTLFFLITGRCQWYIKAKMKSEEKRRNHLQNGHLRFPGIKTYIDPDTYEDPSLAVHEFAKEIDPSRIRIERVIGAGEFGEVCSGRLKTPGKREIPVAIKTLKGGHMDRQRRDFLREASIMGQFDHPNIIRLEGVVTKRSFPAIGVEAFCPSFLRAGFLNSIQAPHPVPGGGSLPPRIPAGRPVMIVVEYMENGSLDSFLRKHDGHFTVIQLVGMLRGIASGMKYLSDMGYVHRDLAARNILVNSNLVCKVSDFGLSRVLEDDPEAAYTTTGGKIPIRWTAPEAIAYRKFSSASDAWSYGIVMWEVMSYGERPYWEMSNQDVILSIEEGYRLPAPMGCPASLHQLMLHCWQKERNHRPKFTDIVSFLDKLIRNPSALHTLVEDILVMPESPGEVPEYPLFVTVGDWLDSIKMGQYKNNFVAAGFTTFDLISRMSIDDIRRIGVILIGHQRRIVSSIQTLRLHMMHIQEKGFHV
To be noted: EPHA6, 10 µM; read-out: score (%).

The target of assay [2] is T2, KinomeScan kinase panel (Homo sapiens, UniProt P29323).
T2 construct: purchased DiscoveRx (KinomeScan)
T2 sequence (P29323 19-1055): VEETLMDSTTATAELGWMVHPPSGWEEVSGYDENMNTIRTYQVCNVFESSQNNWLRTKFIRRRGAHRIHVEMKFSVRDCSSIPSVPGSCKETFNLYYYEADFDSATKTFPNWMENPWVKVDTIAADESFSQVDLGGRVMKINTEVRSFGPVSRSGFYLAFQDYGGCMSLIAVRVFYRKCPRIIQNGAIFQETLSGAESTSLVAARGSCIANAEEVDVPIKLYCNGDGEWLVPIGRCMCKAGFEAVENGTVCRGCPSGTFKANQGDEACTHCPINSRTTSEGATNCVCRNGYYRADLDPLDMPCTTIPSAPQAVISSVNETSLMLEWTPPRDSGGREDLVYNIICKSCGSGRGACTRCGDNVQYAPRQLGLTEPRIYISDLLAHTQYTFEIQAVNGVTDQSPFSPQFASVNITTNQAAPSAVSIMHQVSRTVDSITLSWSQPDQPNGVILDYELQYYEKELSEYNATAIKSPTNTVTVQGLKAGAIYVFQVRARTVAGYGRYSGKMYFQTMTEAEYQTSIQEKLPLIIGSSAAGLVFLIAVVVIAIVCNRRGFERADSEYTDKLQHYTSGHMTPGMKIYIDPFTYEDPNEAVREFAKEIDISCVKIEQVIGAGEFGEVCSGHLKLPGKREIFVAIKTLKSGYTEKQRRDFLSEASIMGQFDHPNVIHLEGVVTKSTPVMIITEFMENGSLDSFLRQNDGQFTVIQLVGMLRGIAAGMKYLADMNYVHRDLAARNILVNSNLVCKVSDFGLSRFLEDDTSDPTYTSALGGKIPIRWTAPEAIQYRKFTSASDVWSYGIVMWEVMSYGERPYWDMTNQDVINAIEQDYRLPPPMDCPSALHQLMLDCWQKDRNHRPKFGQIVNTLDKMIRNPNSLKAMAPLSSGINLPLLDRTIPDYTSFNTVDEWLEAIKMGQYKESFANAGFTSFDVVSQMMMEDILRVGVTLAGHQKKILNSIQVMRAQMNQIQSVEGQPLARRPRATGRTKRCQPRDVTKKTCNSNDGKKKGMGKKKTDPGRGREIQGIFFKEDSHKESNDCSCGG
To be noted: EPHB2, 10 µM.

The target of assay [3] is T3, KinomeScan kinase panel (Homo sapiens, UniProt O75914).
T3 construct: purchased DiscoveRx (KinomeScan)
To be noted: PAK3, 10 µM; read-out: score (%).

The target in assay [4] is T4, KinomeScan kinase panel (Homo sapiens, UniProt P00533, DEL746-750).
T4 construct: purchased DiscoveRx (KinomeScan)

Assay [5] addresses T5, KinomeScan kinase panel (Homo sapiens, UniProt Q13557).
T5 construct: purchased DiscoveRx (KinomeScan)
To be noted: CAMK2D, 10 µM; read-out: score (%).

For assay [6], the target named is T6, KinomeScan kinase panel (Homo sapiens, UniProt P00519).
T6 construct: purchased DiscoveRx (KinomeScan)
To be noted: read-out: score (%).

Assay [7] addresses T7, KinomeScan kinase panel (Homo sapiens, UniProt Q15759).
T7 construct: purchased DiscoveRx (KinomeScan)
The conditions noted are these: p38-beta, 10 µM; read-out: score (%).

Read-outs that look alike come from different tables or passages of the source.

T3 sequence (O75914 whole entry): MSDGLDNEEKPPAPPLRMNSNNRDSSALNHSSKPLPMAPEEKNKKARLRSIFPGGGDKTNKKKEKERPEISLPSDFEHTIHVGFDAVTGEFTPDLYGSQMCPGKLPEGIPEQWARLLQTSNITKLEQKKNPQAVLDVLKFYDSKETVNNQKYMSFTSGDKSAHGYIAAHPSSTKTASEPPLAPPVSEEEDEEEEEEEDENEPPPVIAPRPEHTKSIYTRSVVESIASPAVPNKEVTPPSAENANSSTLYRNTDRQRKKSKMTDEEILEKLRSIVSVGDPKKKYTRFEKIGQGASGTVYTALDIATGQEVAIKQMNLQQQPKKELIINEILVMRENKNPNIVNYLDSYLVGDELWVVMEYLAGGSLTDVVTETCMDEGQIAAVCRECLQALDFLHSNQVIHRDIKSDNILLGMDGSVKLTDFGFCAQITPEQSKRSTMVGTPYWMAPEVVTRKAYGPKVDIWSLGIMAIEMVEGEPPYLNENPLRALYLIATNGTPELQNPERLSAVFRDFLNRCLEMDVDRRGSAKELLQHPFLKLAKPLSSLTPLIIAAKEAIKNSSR
T5 sequence (Q13557 whole entry): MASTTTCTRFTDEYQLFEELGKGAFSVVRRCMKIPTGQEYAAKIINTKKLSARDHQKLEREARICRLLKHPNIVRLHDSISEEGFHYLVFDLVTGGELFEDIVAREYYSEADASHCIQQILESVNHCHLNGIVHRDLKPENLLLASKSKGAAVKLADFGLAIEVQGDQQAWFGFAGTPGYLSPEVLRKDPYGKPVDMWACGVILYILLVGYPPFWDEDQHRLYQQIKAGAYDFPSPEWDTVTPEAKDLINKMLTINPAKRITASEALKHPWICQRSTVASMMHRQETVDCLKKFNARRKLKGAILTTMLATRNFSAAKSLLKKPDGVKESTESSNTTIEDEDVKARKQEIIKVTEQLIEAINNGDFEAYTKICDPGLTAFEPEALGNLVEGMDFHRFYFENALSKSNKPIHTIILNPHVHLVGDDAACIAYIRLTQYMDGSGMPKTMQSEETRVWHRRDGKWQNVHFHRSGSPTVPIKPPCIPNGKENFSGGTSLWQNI
T7 sequence (Q15759 whole entry): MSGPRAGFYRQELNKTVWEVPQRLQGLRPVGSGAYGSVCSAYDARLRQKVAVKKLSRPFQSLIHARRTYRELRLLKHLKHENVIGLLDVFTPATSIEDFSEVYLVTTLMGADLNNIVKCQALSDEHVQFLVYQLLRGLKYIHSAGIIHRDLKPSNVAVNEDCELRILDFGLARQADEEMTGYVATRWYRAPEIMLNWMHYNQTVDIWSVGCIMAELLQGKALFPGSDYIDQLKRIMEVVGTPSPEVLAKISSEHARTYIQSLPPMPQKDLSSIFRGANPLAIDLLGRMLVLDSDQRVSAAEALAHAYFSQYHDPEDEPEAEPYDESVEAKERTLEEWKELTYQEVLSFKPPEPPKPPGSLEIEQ
T6 sequence (P00519 whole entry): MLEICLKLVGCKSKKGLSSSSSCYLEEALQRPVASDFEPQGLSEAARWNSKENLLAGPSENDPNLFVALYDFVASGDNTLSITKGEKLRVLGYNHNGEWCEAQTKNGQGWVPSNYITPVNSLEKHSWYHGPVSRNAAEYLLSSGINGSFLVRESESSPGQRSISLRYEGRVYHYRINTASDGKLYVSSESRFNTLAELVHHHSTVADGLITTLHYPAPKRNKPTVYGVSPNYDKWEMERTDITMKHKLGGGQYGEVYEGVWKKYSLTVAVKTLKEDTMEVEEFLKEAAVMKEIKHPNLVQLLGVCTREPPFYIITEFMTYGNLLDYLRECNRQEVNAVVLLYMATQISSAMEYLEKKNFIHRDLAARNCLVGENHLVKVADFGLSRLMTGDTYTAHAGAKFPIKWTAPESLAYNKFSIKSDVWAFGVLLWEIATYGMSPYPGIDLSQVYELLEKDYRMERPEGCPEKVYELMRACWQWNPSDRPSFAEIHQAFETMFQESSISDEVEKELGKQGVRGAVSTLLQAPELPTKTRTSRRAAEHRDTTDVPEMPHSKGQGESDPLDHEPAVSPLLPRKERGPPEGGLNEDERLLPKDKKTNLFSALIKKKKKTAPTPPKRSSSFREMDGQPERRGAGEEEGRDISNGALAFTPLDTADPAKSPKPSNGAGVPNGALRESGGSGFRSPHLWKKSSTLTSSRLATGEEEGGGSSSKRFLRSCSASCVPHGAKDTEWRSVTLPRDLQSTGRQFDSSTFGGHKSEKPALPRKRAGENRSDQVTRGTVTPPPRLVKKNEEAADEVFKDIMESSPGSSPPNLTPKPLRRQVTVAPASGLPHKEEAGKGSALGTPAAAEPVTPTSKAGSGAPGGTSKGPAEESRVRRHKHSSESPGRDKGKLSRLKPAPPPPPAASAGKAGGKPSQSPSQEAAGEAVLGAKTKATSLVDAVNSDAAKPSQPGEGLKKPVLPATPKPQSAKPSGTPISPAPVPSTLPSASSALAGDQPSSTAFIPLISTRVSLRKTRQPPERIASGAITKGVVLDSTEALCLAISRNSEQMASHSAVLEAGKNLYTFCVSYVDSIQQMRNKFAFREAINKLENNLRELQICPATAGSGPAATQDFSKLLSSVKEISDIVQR
T4 sequence (P00533 with tags, fused parts or gaps DEL746-750): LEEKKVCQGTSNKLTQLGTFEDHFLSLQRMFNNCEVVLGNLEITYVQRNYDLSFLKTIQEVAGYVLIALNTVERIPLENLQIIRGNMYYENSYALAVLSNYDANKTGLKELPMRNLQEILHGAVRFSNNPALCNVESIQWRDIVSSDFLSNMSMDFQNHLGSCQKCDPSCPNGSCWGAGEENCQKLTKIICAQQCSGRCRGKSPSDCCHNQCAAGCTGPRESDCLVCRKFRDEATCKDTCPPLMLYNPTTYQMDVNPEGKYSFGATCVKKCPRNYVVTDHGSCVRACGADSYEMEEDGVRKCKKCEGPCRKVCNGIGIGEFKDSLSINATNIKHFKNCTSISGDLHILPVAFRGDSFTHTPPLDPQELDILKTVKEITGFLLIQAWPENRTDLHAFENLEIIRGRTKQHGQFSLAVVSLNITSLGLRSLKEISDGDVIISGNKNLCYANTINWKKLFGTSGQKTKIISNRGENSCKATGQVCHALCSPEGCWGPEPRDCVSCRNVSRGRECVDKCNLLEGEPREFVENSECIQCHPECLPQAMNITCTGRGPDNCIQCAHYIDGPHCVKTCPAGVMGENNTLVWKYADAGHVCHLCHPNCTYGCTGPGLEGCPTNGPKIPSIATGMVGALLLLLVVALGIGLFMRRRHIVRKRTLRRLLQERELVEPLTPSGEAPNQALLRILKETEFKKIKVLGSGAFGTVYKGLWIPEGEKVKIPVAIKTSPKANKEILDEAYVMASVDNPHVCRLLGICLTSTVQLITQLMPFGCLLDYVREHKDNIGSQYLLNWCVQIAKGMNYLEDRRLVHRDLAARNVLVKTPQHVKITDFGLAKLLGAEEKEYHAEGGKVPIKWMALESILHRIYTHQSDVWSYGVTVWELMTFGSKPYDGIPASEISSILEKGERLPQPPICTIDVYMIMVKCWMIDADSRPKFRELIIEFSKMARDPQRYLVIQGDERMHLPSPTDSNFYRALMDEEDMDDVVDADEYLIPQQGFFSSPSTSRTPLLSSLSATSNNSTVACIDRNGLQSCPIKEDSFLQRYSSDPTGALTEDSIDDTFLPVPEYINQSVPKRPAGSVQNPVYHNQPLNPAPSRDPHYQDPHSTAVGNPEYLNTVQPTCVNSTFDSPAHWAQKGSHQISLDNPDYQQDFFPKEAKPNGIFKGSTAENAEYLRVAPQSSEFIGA

On to `CCN1CCN(Cc2ccc(NC(=O)c3ccc(C)c(NC(=O)c4cncc(-c5cccs5)c4)c3)cc2C(F)(F)F)CC1` [ALW-II-41-27], for which the remaining binding at 10 µM in assay [1] is 28%; in assay [3], over 30%; in assay [5], over 30%; in assay [6] (ABL1, 10 µM), 0.05%; in assay [7], 0%. Also, the “score (%)” value in assay [2] stood at 0%; in assay [4] it was 1.2%.
As to `CCN1CCN(Cc2ccc(NC(=O)c3ccc(C)c(/C=C/c4cnc5[nH]ccc5c4Cl)c3)cc2C(F)(F)F)CC1` [HG-6-63-01, (E)-3-(2-(4-chloro-1H-pyrrolo[2,3-b]pyridin-5-yl)vinyl)-N-(4-((4-ethylpiperazin-1-yl)methyl)-3-(trifluoromethyl)phenyl)-4-methylbenzamide], the remaining binding at 10 µM was 6.7% in assay [1]; 30% in assay [3]; over 30% in assay [5]; 0.3% in assay [6] (ABL1, 10 µM); 0% in assay [7]. In addition, the “score (%)” value in assay [2] worked out at 1.1%; in assay [4] (EGFR(E746-A750del), 10 µM), 0.9%.
Turning to `CCN1CCN(Cc2ccc(NC(=O)c3ccc(C)c(C#Cc4cccnc4)c3)cc2C(F)(F)F)CC1` [XMD15-44], the remaining binding at 10 µM in assay [1] was 0%; in assay [3], 3.3%; in assay [5] it was over 30%; in assay [6] (ABL1-nonphosphorylated, 10 µM), 0%; in assay [6] (ABL1-phosphorylated, 10 µM) it was 0%; in assay [7], 0%. In addition, the “score (%)” value is 0.1% in assay [2] and 1.8% in assay [4] (EGFR(E746-A750del), 10 µM).
